Measured values taken from patent US11851406B2, “Positive allosteric modulators of the muscarinic acetylcholine receptor M1” (Vanderbilt University, priority 2018, dated 2023).

Key:
[1] = biological target: T1, human mAChR M1 (Homo sapiens, UniProt P11229); experiment: mAChR M1 cell-based functional assay (calcium mobilization), PAM activity: increase in the EC20 acetylcholine response; details: CHO-K1 cells expressing hM1; calcium flux (Fluo-4); potentiation of EC20 acetylcholine response
T1 sequence (P11229 1-460): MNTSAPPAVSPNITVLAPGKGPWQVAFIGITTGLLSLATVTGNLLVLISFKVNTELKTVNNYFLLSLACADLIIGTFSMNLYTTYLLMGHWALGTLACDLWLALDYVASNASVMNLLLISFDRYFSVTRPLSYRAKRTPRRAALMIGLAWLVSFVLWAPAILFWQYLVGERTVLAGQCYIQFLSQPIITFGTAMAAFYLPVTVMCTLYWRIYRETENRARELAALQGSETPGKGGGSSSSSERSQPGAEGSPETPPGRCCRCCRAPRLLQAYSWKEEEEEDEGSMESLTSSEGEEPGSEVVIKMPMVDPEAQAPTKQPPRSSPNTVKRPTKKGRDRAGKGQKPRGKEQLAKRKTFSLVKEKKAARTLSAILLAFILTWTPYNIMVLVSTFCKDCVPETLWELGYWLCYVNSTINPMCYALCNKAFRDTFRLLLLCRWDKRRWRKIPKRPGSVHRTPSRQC
From the text: (§1) Chinese hamster ovary (CHO-K1) cells stably expressing rat (r)M1 were purchased from the American Type Culture Collection and cultured according to their indicated protocol. CHO cells stably expressing human (h)M2, hM3, and hM5 were described previously (Levey, et al., 1991); hM1 and hM4 cDNAs were purchased from Missouri S&T cDNA Resource; rM4 cDNA was provided by T. I. Bonner (National Institutes of Health, Bethesda, Md.). rM2 and rM3 were cloned from a rat brain cDNA library and sequence verified. hM1, rM2, rM3, hM4, and rM4 cDNAs were used to stably transfect CHO-K1 cells purchased from the American Type Culture Collection using Lipofectamine2000. To make stable rM2, hM2, rM3, hM4, and rM4 cell lines for use in calcium mobilization assays, these cells also were stably transfected with a chimeric G-protein (Gqi5) (provided by B. R. Conklin, University of California, San Francisco) using Lipofectamine 2000. rM1, hM1, rM3, hM3, rM5, and hM5 cells were grown in Ham's F-12 medium containing 10% heat-inactivated fetal bovine serum (FBS), 20 mM HEPES, and 50 μg/mL G418 sulfate. rM2-Gqi5, hM2-Gqi5, and hM4-Gqi5 cells were grown in the same medium also containing 500 μg/mL Hygromycin B. Stable rM4-Gqi5 cells were grown in DMEM containing 10% heat-inactivated FBS, 20 mM HEPES, 400 μg/mL G418 sulfate, and 500 μg/mL Hygromycin B.
(§2) For high throughput measurement of agonist-evoked increases in intracellular calcium, CHO-K1 cells stably expressing muscarinic receptors were plated in growth medium lacking G418 and hygromycin at 15,000 cells/20 μL/well in Greiner 384-well black-walled, tissue culture (TC)-treated, clear-bottom plates (VWR). Cells were incubated overnight at 37° C. and 5% CO2. The next day, cells were washed using an ELX 405 (BioTek) with four washes (80 μL) of assay buffer then aspirated to 20 μL. Next, 20 μL of 16 μM Fluo-4/acetoxymethyl ester (Invitrogen, Carlsbad, Calif.) prepared as a 2.3 mM stock in DMSO and mixed in a 1:1 ratio with 10% (w/v) Pluronic F-127 and diluted in assay buffer was added to the wells and the cell plates were incubated for 50 min at 37° C. and 5% CO2. Dye was removed by washing with the ELX 405 (four 80 μL washes of assay buffer) then aspirated to 20 μL. Compound master plates were formatted in an 11 point CRC format (1:3 dilutions) in 100% DMSO with a starting concentration of 10 mM using the BRAVO liquid handler (Agilent). Test compound CRCs were then transferred to daughter plates (240 nL) using the Echo acoustic plate reformatter (Labcyte, Sunnyvale, Calif.) and then diluted into assay buffer (40 μL) to a 2× stock using a Thermo Fisher Combi (Thermo Fisher Scientific, Waltham, Mass.).
(§3) Calcium flux was measured using the Functional Drug Screening System (FDSS) 6000 (Hamamatsu Corporation, Tokyo, Japan) as an increase in the fluorescent static ratio. Compounds were applied to cells (20 μL, 2×) using the automated system of the FDSS 6000 at 4 s into the 300 s protocol and the data were collected at 1 Hz. At 144 s into the 300 s protocol, 10 μL of an EC20 concentration of the muscarinic receptor agonist acetylcholine was added (5×), followed by the addition of 12 μL an EC80 concentration of acetylcholine at the 230 s time point (5×). Agonist activity was analyzed as a concentration-dependent increase in calcium mobilization upon compound addition. Emax values for agonist activity are expressed relative to the maximum for acetylcholine. Positive allosteric modulator activity was analyzed as a concentration-dependent increase in the EC20 acetylcholine response. Antagonist activity was analyzed as a concentration-dependent decrease in the EC80 acetylcholine response. Concentration-response curves were generated using a four-parameter logistical equation in XLfit curve fitting software (IDBS, Bridgewater, N.J.) for Excel (Microsoft, Redmond, Wash.) or Prism (GraphPad Software, Inc., San Diego, Calif.).

[2] = biological target: T1, human mAChR M1; experiment: mAChR M1 cell-based functional assay (calcium mobilization), agonist activity upon compound addition alone; details: CHO-K1 cells expressing hM1; for EC50: calcium mobilization upon compound addition, no acetylcholine; for Emax: compound alone, relative to the maximum for acetylcholine
From the text: as §1, §2, §3

SMILES	EC50 [1]	Emax [1]	EC50 [2]	Emax [2]
Cc1c(Cc2ccc(-c3ccn(C)n3)cc2)cc(C(=O)N[C@H]2CCCC[C@@H]2O)nc1-c1ccn(C)n1 [Compound 10, N-((1S,2S)-2-hydroxycyclohexyl)-5-methyl-6-(1-methyl-1H-pyrazol-3-yl)-4-(4-(1-methyl-1H-pyrazol-3-yl)benzyl)picolinamide]	0.91 µM	86%	≥ 10 µM	13%
Cc1c(Cc2ccc(-c3ccn(C)n3)cc2)cc(C(=O)NC2CC3(COC3)C2)nc1-c1ccn(C)n1 [Compound 11, 5-methyl-6-(1-methyl-1H-pyrazol-3-yl)-4-(4-(1-methyl-1H-pyrazol-3-yl)benzyl)-N-(2-oxaspiro[3.3]heptan-6-yl)picolinamide]	4.72 µM	88%	> 10 µM	< 5%
Cc1c(Cc2ccc(-c3ccn(C)n3)cc2)cc(C(=O)N[C@H]2CCC[C@@H]2O)nc1-c1ccn(C)n1 [Compound 12, N-((1S,2S)-2-hydroxycyclopentyl)-5-methyl-6-(1-methyl-1H-pyrazol-3-yl)-4-(4-(1-methyl-1H-pyrazol-3-yl)benzyl)picolinamide]	1.97 µM	86%	> 10 µM	6%
Cc1c(Cc2ccc(-c3ccn(C)n3)cc2)cc(C(=O)N[C@H]2CC[C@@H]2O)nc1-c1ccn(C)n1 [Compound 13, N-((1S,2S)-2-hydroxycyclobutyl)-5-methyl-6-(1-methyl-1H-pyrazol-3-yl)-4-(4-(1-methyl-1H-pyrazol-3-yl)benzyl)picolinamide]	7.99 µM	80%	> 10 µM	< 5%
Cc1c(Cc2ccc(-c3ccn(C)n3)cc2)cc(C(=O)NCC2CCOCC2)nc1-c1ccn(C)n1 [Compound 14, 5-methyl-6-(1-methyl-1H-pyrazol-3-yl)-4-(4-(1-methyl-1H-pyrazol-3-yl)benzyl)-N-((tetrahydro-2H-pyran-4-yl)methyl)picolinamide]		74%	> 10 µM	< 5%
Cc1c(Cc2ccc(-c3ccn(C)n3)cc2)cc(C(=O)NC[C@@H]2CCCO2)nc1-c1ccn(C)n1 [Compound 15, (S)-5-methyl-6-(1-methyl-1H-pyrazol-3-yl)-4-(4-(1-methyl-1H-pyrazol-3-yl)benzyl)-N-((tetrahydrofuran-2-yl)methyl)picolinamide]	4.61 µM	82%	> 10 µM	< 5%
Cc1c(Cc2ccc(-c3ccn(C)n3)cc2)cc(C(=O)NC[C@H]2CCCO2)nc1-c1ccn(C)n1 [Compound 16, (R)-5-methyl-6-(1-methyl-1H-pyrazol-3-yl)-4-(4-(1-methyl-1H-pyrazol-3-yl)benzyl)-N-((tetrahydrofuran-2-yl)methyl)picolinamide]		62%	> 10 µM	< 5%

Second part, the compound after the results:

EC50 [1]	Emax [1]	EC50 [2]	Emax [2]	SMILES
8.72 µM	85%	> 10 µM	< 5%	Cc1c(Cc2ccc(-c3ccn(C)n3)cc2)cc(C(=O)NC2CCOCC2)nc1-c1ccn(C)n1 [Compound 1, 5-methyl-6-(1-methyl-1H-pyrazol-3-yl)-4-(4-(1-methyl-1H-pyrazol-3-yl)benzyl)-N-(tetrahydro-2H-pyran-4-yl)picolinamide]
0.317 µM	78%	7.15 µM	25%	Cc1c(Cc2ccc(-c3ccn(C)n3)cc2)cc(C(=O)N[C@H]2CCOC[C@@H]2O)nc1-n1cccn1 [Compound 2, N-((3R,4S)-3-hydroxytetrahydro-2H-pyran-4-yl)-5-methyl-4-(4-(1-methyl-1H-pyrazol-3-yl)benzyl)-6-(1H-pyrazol-1-yl)picolinamide]
4 µM	90%	> 10 µM	< 5%	Cn1cc(-c2ccc(Cc3cc(C(=O)N[C@H]4CCCC[C@@H]4O)nc(-c4ccn(C)n4)c3)cn2)cn1 [Compound 3, N-((1S,2S)-2-hydroxycyclohexyl)-6-(1-methyl-1H-pyrazol-3-yl)-4-((6-(1-methyl-1H-pyrazol-4-yl)pyridin-3-yl)methyl)picolinamide]
	53%	> 10 µM	< 5%	Cn1cc(-c2ccc(Cc3cc(C(=O)NC4CCOCC4)nc(-c4ccn(C)n4)c3)cn2)cn1 [Compound 4, 6-(1-methyl-1H-pyrazol-3-yl)-4-((6-(1-methyl-1H-pyrazol-4-yl)pyridin-3-yl)methyl)-N-(tetrahydro-2H-pyran-4-yl)picolinamide]
	52%	> 10 µM	< 5%	Cn1cc(-c2ccc(Cc3cc(C(=O)NC4CC5(COC5)C4)nc(-c4ccn(C)n4)c3)cn2)cn1 [Compound 5, 6-(1-methyl-1H-pyrazol-3-yl)-4-((6-(1-methyl-1H-pyrazol-4-yl)pyridin-3-yl)methyl)-N-(2-oxaspiro[3.3]heptan-6-yl)picolinamide]
	67%	> 10 µM	< 5%	Cn1cc(-c2ccc(Cc3cc(C(=O)N[C@H]4CCC[C@@H]4O)nc(-c4ccn(C)n4)c3)cn2)cn1 [Compound 6, N-((1S,2S)-2-hydroxycyclopentyl)-6-(1-methyl-1H-pyrazol-3-yl)-4-((6-(1-methyl-1H-pyrazol-4-yl)pyridin-3-yl)methyl)picolinamide]
	38%	> 10 µM	< 5%	Cn1cc(-c2ccc(Cc3cc(C(=O)NC[C@@H]4CCCO4)nc(-c4ccn(C)n4)c3)cn2)cn1 [Compound 7, (S)-6-(1-methyl-1H-pyrazol-3-yl)-4-((6-(1-methyl-1H-pyrazol-4-yl)pyridin-3-yl)methyl)-N-((tetrahydrofuran-2-yl)methyl)picolinamide]
8.01 µM	75%	> 10 µM	< 5%	Cn1cc(-c2ccc(Cc3cc(C(=O)NC4CCOCC4(C)C)nc(-c4ccn(C)n4)c3)cn2)cn1 (stereo not shown) [Compound 8, N-(3,3-dimethyltetrahydro-2H-pyran-4-yl)-6-(1-methyl-1H-pyrazol-3-yl)-4-((6-(1-methyl-1H-pyrazol-4-yl)pyridin-3-yl)methyl)picolinamide]
0.542 µM	86%	9.81 µM	18%	Cc1c(Cc2ccc(-c3ccn(C)n3)cc2)cc(C(=O)N[C@H]2CCOC[C@@H]2O)nc1-c1ccn(C)n1 [Compound 9, N-((3R,4S)-3-hydroxytetrahydro-2H-pyran-4-yl)-5-methyl-6-(1-methyl-1H-pyrazol-3-yl)-4-(4-(1-methyl-1H-pyrazol-3-yl)benzyl)picolinamide]
